Assay results published in PubChem BioAssay (NCI).
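Dose response: 5 concentrations. Exposure: 48 h. Format: 96-well plates. Endpoint: linear interpolation; highest concentration if not reached. TGI marks complete inhibition of growth.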

Columns and labels:
Assay in all cases: growth of human tumour cells (NCI), 48 h
[1] = system: 786-0 renal
[2] = system: A549 NSCLC
[3] = system: CAKI-1 renal
[4] = system: CCRF-CEM leukemia
[5] = system: DU-145 prostate
[6] = system: EKVX NSCLC
[7] = system: HCC-2998 colon
[8] = system: HCT-15 colon
[9] = system: HL-60(TB) leukemia
[10] = system: HOP-62 NSCLC
[11] = system: HT29 colon
[12] = system: IGROV1 ovarian
[13] = system: K-562 leukemia
[14] = system: KM12 colon
[15] = system: LOX IMVI melanoma
[16] = system: M14 melanoma
[17] = system: MALME-3M melanoma
[18] = system: MCF7 breast
[19] = system: MDA-MB-231 breast
[20] = system: MDA-N
[21] = system: MOLT-4 leukemia
[22] = system: NCI-H23 lung
[23] = system: OVCAR-8 ovarian
[24] = system: PC-3 prostate
[25] = system: RPMI-8226 leukemia
[26] = system: RXF 393 renal
[27] = system: SF-268 CNS
[28] = system: SF-295 CNS
[29] = system: SK-MEL-28 melanoma
[30] = system: SK-MEL-5 melanoma
[31] = system: SK-OV-3 ovarian
[32] = system: SN12C renal
[33] = system: SNB-75 CNS
[34] = system: SR leukemia
[35] = system: SW-620 colon
[36] = system: T-47D breast
[37] = system: TK-10 renal
[38] = system: UACC-257 melanoma
[39] = system: UACC-62 melanoma
[40] = system: ACHN renal
[41] = system: BT-549 breast
[42] = system: COLO 205 colon
[43] = system: HCT-116 colon
[44] = system: HS 578T breast
[45] = system: MDA-MB-435
[46] = system: NCI-H226 lung
[47] = system: NCI-H522 lung
[48] = system: NCI/ADR-RES ovarian
[49] = system: OVCAR-3 ovarian
[50] = system: OVCAR-4 ovarian
[51] = system: OVCAR-5 ovarian
[52] = system: SK-MEL-2 melanoma
[53] = system: SNB-19 CNS
[54] = system: U251 CNS
[55] = system: UO-31 renal

Measured: TGI

CC(C)(Oc1ccc2c(=O)cc(-c3ccccc3)oc2c1)C(=O)N1CCN(c2ccccc2)CC1
6.73 µM: [26]
4.38 µM: [9]
not listed: [40] | [41] | [42] | [43] | [44] | [45] | [46] | [47] | [48] | [49] | [50] | [51] | [52] | [53] | [54] | [55]
> 10 µM: all other assays above

CN1CC=C(c2cccn2C)CC1
> 100 µM: all assays above
